Data as given in patent US11712456B2, “Hemp extract for treatment of pain in animals” (Portland Technology Holdings LLC, priority 2018, dated 2023).
“And” between values parts separate entries of the source, which are not always exact repeats. Equal entries are not always repeated.

Assay: Feline safety study: cannabidiol quantification in serum and pharmacokinetics (LC-MS/MS)
Assay type: in vivo
Conditions: individual cats; oral administration of 2/mg/kg cannabidiol in capsule form
Method: On the first day of dosing, blood was collected for a PK analysis from 6 of the 8 cats. The most cooperative cats were selected for the PK analysis. […] Samples were placed into a red top clotting tube with no serum separator. […] The harvested serum was placed in cyrovials stored at −70° C. Each tube was labeled with the cat id, date of collection and collection time point. Samples were shipped overnight on dry ice to the Proteomics & Metabolomics Facility at Colorado State University.
Aliquots of feline serum were delivered to the facility on dry ice and stored at −80° C. upon receipt. […] 200 μL of cold (−20 C) 100% Acetonitrile (spiked with 60 ng/mL of d3-CBD) was added to each sample and vortexed at room temperature for 5 minutes. 200 μL of water was added and vortexed for an additional 5 minutes. 1 ml of 100% hexane was then added to each sample and vortexed for a final 5 minutes. […] The upper hexane layer was transferred to new-labeled glass vials (˜900 uL per sample), carefully avoiding the middle and lower layers. Samples were concentrated to dryness under N2 and resuspended in 60 μL of 100% acetonitrile.
An 8 point standard curve of CBD was generated in matrix background using a blank serum. Concentrations ranged from 0 ng/mL 1000 ng/mL (3.2× dilution series). 50 uL of each spiked serum sample was extracted as above.
LC-MS/MS was performed on a Waters Acquity M-Class UPLC coupled to a Waters Xevo TQ-S triple quadrupole mass spectrometer. […] Flow rate was 3.0 μL/min and injection volume was 2.0 μL. Samples were held at 6° C. in the autosampler, and the column was operated at 70° C. The MS was operated in selected reaction monitoring (SRM) mode, where a parent ion is selected by the first quadrupole, fragmented in the collision cell, then a fragment ion selected for by the third quadrupole. Product ions, collision energies, and cone voltages were optimized for each analyte by direct injection of individual synthetic standards. Inter-channel delay was set to 3 ms. The MS was operated in positive ionization mode with the capillary voltage set to 3.6 kV. […]
All Raw data files were imported into the Skyline open source software package. […] Peak areas were extracted for target compounds detected in biological samples and normalized to the peak area of the appropriate internal standard in each sample using in-house R Script (TQS-tools). CBD concentrations were calculated in nanograms per milliliter of extract (0.06 mL) and then back calculated to nanograms per mL of serum (0.05 mL of serum). […]
LOD are calculated based on the standard deviation of the response (Sy) of the 0 point calibration standard (i.e. 0 ng/mL CBD as an estimate on noise) and the slope of the calibration curve (S) at levels approximating the LOD according to the formula: LOD=3*(Sy/S). […]

C=C(C)[C@@H]1CCC(C)=C[C@H]1c1c(O)cc(CCCCC)cc1O [cannabidiol]
AUC 0-t = Area under the curve (0 time to time of last collection [24 hr]): 265.0 ng·h/mL and 54.2 ng·h/mL and 42.4 ng·h/mL and 212.2 ng·h/mL and 125.0 ng·h/mL and 194.1 ng·h/mL and 134.2 ng·h/mL and 60.2 ng·h/mL | Cmax = Maximum concentration: 8.8 ng/mL and 12.1 ng/mL and 75.3 ng/mL and 40.5 ng/mL and 53.3 ng/mL and 21.2 ng/mL | Tmax = Time of maximum concentration: 4 h and 1 h | T½ el = Half-life of elimination: 2.3 h and 1.3 h and 1.7 h
